Results on 15 compounds are retold here after PubChem BioAssay AID270 (DTP/NCI, 2004).

Structures are written as SMILES. Where “and” joins values, the source holds several entries; their conditions need not be identical. Equal entries are not always repeated. Inconclusive results are not listed.

The experiment has as its system BDF1 mice, s.c. Lewis lung carcinoma, T/C %. The experiment in a line: NCI In Vivo Anticancer Drug Screen. Data for tumor model Lewis Lung Carcinoma (subcutaneous) in B6D2F1 (BDF1) mice. Put shortly: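 Readout: survival or tumor size, expressed as treated (T) over vehicle control (C). Transplantable tumor implanted in mice; compound given to the treated group.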
The mark [1] stands for this setting: endpoint: mean tumor weight, dose: 50.0 mg/kg/injection, schedule: Q01DX011 (ip), vehicle: saline, higher = larger tumour.
Setting [2] is: endpoint: mean tumor weight, dose: 100.0 mg/kg/injection, schedule: Q01DX011 (ip), vehicle: saline, higher = larger tumour.

As to `CC(=O)Nc1c(Cl)cc2c(c1Cl)Cc1cc([N+](=O)[O-])ccc1-2`, the T/C reads like this: (endpoint: mean tumor weight, dose: 20.0 mg/kg/injection, schedule: Q01DX011 (ip), vehicle: carboxymethylcellulose (CMC), higher = larger tumour) 55 % of control; (endpoint: mean tumor weight, dose: 40.0 mg/kg/injection, schedule: Q01DX011 (ip), vehicle: carboxymethylcellulose (CMC), higher = larger tumour) 32 % of control.
For the compound `CCC[CH2][Sn]1([CH2]CCC)[O]C(=O)C[S]1`, the T/C runs as follows: (endpoint: mean tumor weight, dose: 4.0 mg/kg/injection, schedule: Q01DX011 (ip), vehicle: saline, higher = larger tumour) 88 % of control; (endpoint: mean tumor weight, dose: 8.0 mg/kg/injection, schedule: Q01DX011 (ip), vehicle: saline, higher = larger tumour) 50 % of control; (endpoint: mean tumor weight, dose: 16.0 mg/kg/injection, schedule: Q01DX011 (ip), vehicle: saline, higher = larger tumour) 100 % of control.
With `COc1cc(NS(C)(=O)=O)ccc1Nc1c2cccc(C)c2nc2c(C)cccc12`, the T/C runs as follows: (endpoint: median survival time, dose: 6.25 mg/kg/injection, schedule: Q01DX011 (ip), vehicle: saline, higher = longer survival) 88 % of control; (endpoint: median survival time, dose: 12.5 mg/kg/injection, schedule: Q01DX011 (ip), vehicle: saline, higher = longer survival) 113 % of control; (endpoint: median tumor weight (est.), dose: 25.0 mg/kg/injection, schedule: Q01DX011 (ip), vehicle: saline, higher = larger tumour) 579 % of control.
For the compound `CC(=O)c1ccc(-c2ccccc2)cc1`, the T/C (endpoint: mean tumor weight, dose: 125.0 mg/kg/injection, schedule: Q01DX011 (ip), vehicle: other, higher = larger tumour) is 57 % of control; the T/C (endpoint: mean tumor weight, dose: 222.0 mg/kg/injection, schedule: Q01DX011 (ip), vehicle: other, higher = larger tumour) is 174 % of control; the T/C (endpoint: mean tumor weight, dose: 250.0 mg/kg/injection, schedule: Q01DX011 (ip), vehicle: other, higher = larger tumour) was 73 % of control; the T/C (endpoint: mean tumor weight, dose: 333.0 mg/kg/injection, schedule: Q01DX011 (ip), vehicle: other, higher = larger tumour) is 118 % of control; the T/C (endpoint: mean tumor weight, dose: 500.0 mg/kg/injection, schedule: Q01DX011 (ip), vehicle: other, higher = larger tumour) is 86 % of control.
On to `Oc1cc(O)c2c(c1)O[C@H](c1ccc(O)c(O)c1)[C@@H](O)C2`, for which the T/C reads like this: under setting [1], 76 % of control; under setting [2], 94 % of control; (endpoint: mean tumor weight, dose: 200.0 mg/kg/injection, schedule: Q01DX011 (ip), vehicle: saline, higher = larger tumour) 72 % of control; (endpoint: mean tumor weight, dose: 400.0 mg/kg/injection, schedule: Q01DX011 (ip), vehicle: saline, higher = larger tumour) 74 % of control.
Take `CN(Cc1cnc2nc(N)nc(N)c2n1)c1c(Cl)cc(C(=O)NC(CCC(=O)O)C(=O)O)cc1Cl` (stereo not drawn): the T/C (endpoint: median survival time, dose: 90.0 mg/kg/injection, schedule: Q01DX009 (ip), vehicle: sodium bicarbonate, higher = longer survival) was 110 % of control; the T/C (endpoint: median survival time, dose: 560.0 mg/kg/injection, schedule: Q04DX003 (ip), vehicle: sodium bicarbonate, higher = longer survival) is 112 % of control; the T/C (endpoint: median survival time, dose: 626.0 mg/kg/injection, schedule: Q01DX001 (ip), vehicle: sodium bicarbonate, higher = longer survival) was 116 % of control; the T/C (endpoint: median survival time, dose: 840.0 mg/kg/injection, schedule: Q04DX003 (ip), vehicle: sodium bicarbonate, higher = longer survival) is 108 % of control; the T/C (endpoint: median survival time, dose: 933.0 mg/kg/injection, schedule: Q01DX001 (ip), vehicle: sodium bicarbonate, higher = longer survival) is 92 % of control; the T/C (endpoint: median survival time, dose: 1400.0 mg/kg/injection, schedule: Q01DX001 (ip), vehicle: sodium bicarbonate, higher = longer survival) was 100 % of control.
Consider `C[C@]12CCC(=O)C=C1CC[C@@H]1[C@@H]2[C@@H](O)C[C@@]2(C)[C@H]1CC[C@]2(O)C(=O)COC(=O)CCC(=O)O`, for which the T/C runs as follows: (endpoint: mean tumor weight, dose: 87.5 mg/kg/injection, schedule: Q01DX011 (sc), vehicle: steriod suspending solution, higher = larger tumour) 76 % of control; (endpoint: mean tumor weight, dose: 175.0 mg/kg/injection, schedule: Q01DX011 (sc), vehicle: steriod suspending solution, higher = larger tumour) 79 % of control; (endpoint: mean tumor weight, dose: 350.0 mg/kg/injection, schedule: Q01DX011 (sc), vehicle: steriod suspending solution, higher = larger tumour) 66 % of control; (endpoint: mean tumor weight, dose: 500.0 mg/kg/injection, schedule: Q01DX011 (sc), vehicle: steriod suspending solution, higher = larger tumour) 26 % of control; (endpoint: mean tumor weight, dose: 700.0 mg/kg/injection, schedule: Q01DX011 (sc), vehicle: steriod suspending solution, higher = larger tumour) 72 % of control.
With `Cc1nc(N)nc(N)c1-c1ccc(Cl)c(Cl)c1`, the T/C is 80 % of control (endpoint: mean tumor weight, dose: 0.9 mg/kg/injection, schedule: Q01DX011 (ip), vehicle: carboxymethylcellulose (CMC), higher = larger tumour); 89 % of control (endpoint: mean tumor weight, dose: 1.3 mg/kg/injection, schedule: Q01DX011 (ip), vehicle: carboxymethylcellulose (CMC), higher = larger tumour); 92 % of control (endpoint: mean tumor weight, dose: 2.0 mg/kg/injection, schedule: Q01DX011 (ip), vehicle: carboxymethylcellulose (CMC), higher = larger tumour); 22 % of control (endpoint: mean tumor weight, dose: 2.0 mg/kg/injection, schedule: Q01DX011 (ip), vehicle: other, higher = larger tumour); 45 % of control (endpoint: mean tumor weight, dose: 3.0 mg/kg/injection, schedule: Q01DX011 (ip), vehicle: carboxymethylcellulose (CMC), higher = larger tumour); 4 % of control (endpoint: mean tumor weight, dose: 6.0 mg/kg/injection, schedule: Q01DX011 (ip), vehicle: other, higher = larger tumour). Also, the T/C (endpoint: median survival time, dose: 0.39 mg/kg/injection, schedule: Q01DX009 (ip), vehicle: saline, higher = longer survival) was 96 % of control; the T/C (endpoint: median survival time, dose: 0.78 mg/kg/injection, schedule: Q01DX009 (ip), vehicle: saline, higher = longer survival) was 108 % of control; the T/C (endpoint: median survival time, dose: 1.0 mg/kg/injection, schedule: Q02DX009 (ip), vehicle: Klucel (hydroxypropylcellulose) (HPC), higher = longer survival) is 105 % of control; the T/C (endpoint: median survival time, dose: 1.56 mg/kg/injection, schedule: Q01DX009 (ip), vehicle: saline, higher = longer survival) was 123 % of control; the T/C (endpoint: median survival time, dose: 2.0 mg/kg/injection, schedule: Q02DX009 (ip), vehicle: Klucel (hydroxypropylcellulose) (HPC), higher = longer survival) is 108 % of control; the T/C (endpoint: median survival time, dose: 3.13 mg/kg/injection, schedule: Q01DX009 (ip), vehicle: saline, higher = longer survival) is 112 % of control.
`CC1CN1P(=O)(N1CC1C)N1CC1C` (stereo not drawn): the T/C runs as follows: (endpoint: median survival time, dose: 6.25 mg/kg/injection, schedule: Q01DX009 (ip), vehicle: saline, higher = longer survival) 98 % of control; (endpoint: median survival time, dose: 12.5 mg/kg/injection, schedule: Q01DX009 (ip), vehicle: saline, higher = longer survival) 90 % of control; (endpoint: median survival time, dose: 25.0 mg/kg/injection, schedule: Q01DX009 (ip), vehicle: saline, higher = longer survival) 89 % of control.
Consider `CC(=O)O[C@@H]1[C@H]2O[C@H]2[C@H]2O[C@@]2(COC(=O)c2ccccc2)[C@H]1OC(C)=O`, for which the T/C runs as follows: (endpoint: mean tumor weight, dose: 150.0 mg/kg/injection, schedule: Q01DX011 (ip), vehicle: carboxymethylcellulose (CMC), higher = larger tumour) 24 % of control; (endpoint: mean tumor weight, dose: 200.0 mg/kg/injection, schedule: Q01DX011 (ip), vehicle: carboxymethylcellulose (CMC), higher = larger tumour) 307 % of control; (endpoint: mean tumor weight, dose: 300.0 mg/kg/injection, schedule: Q01DX011 (ip), vehicle: carboxymethylcellulose (CMC), higher = larger tumour) 119 % of control; (endpoint: median survival time, dose: 3.12 mg/kg/injection, schedule: Q01DX009 (ip), vehicle: gum acacia, higher = longer survival) 95 % of control; (endpoint: median survival time, dose: 6.25 mg/kg/injection, schedule: Q01DX009 (ip), vehicle: gum acacia, higher = longer survival) 92 % of control; (endpoint: median survival time, dose: 12.5 mg/kg/injection, schedule: Q01DX009 (ip), vehicle: gum acacia, higher = longer survival) 115 % of control. Further, under “endpoint: median survival time, dose: 25.0 mg/kg/injection, schedule: Q01DX009 (ip), vehicle: gum acacia, higher = longer survival”, the T/C is 87 % of control.
Turning to `S=C(N=Nc1ccccc1)NNc1ccccc1`, the T/C (endpoint: mean tumor weight, dose: 45.0 mg/kg/injection, schedule: Q01DX011 (ip), vehicle: carboxymethylcellulose (CMC), higher = larger tumour) is 60 % of control.
For `N#C/C(=C\c1ccncc1)c1csc2ccccc12`, the T/C by setting is: (endpoint: median survival time, dose: 50.0 mg/kg/injection, schedule: Q01DX009 (ip), vehicle: Klucel (hydroxypropylcellulose) (HPC), higher = longer survival) 119 % of control; (endpoint: median survival time, dose: 100.0 mg/kg/injection, schedule: Q01DX009 (ip), vehicle: Klucel (hydroxypropylcellulose) (HPC), higher = longer survival) 97 % of control; (endpoint: median survival time, dose: 400.0 mg/kg/injection, schedule: Q01DX009 (ip), vehicle: Klucel (hydroxypropylcellulose) (HPC), higher = longer survival) 110 % of control.
Take `Cc1ccnc(NS(=O)(=O)c2ccc(N=Nc3nc4[nH]c(N)nc(=S)c4[nH]3)cc2)n1`: the T/C runs as follows: (endpoint: median survival time, dose: 0.19 mg/kg/injection, schedule: Q01DX009 (ip), vehicle: Klucel (hydroxypropylcellulose) (HPC), higher = longer survival) 106 % of control; (endpoint: median survival time, dose: 0.39 mg/kg/injection, schedule: Q01DX009 (ip), vehicle: Klucel (hydroxypropylcellulose) (HPC), higher = longer survival) 94 % of control; (endpoint: median survival time, dose: 0.78 mg/kg/injection, schedule: Q01DX009 (ip), vehicle: Klucel (hydroxypropylcellulose) (HPC), higher = longer survival) 97 % of control; (endpoint: median survival time, dose: 1.56 mg/kg/injection, schedule: Q01DX009 (ip), vehicle: Klucel (hydroxypropylcellulose) (HPC), higher = longer survival) 87 % of control and 103 % of control.
As to `Nc1ccc2nc3ccc(N)cc3[n+](-c3ccccc3)c2c1`, the T/C (endpoint: median survival time, dose: 2.0 mg/kg/injection, schedule: Q01DX009 (ip), vehicle: saline, higher = longer survival) was 88 % of control.
For `Nc1ncnc2nc[nH]c12`, the T/C is 101 % of control (endpoint: mean tumor weight, dose: 12.5 mg/kg/injection, schedule: Q01DX011 (ip), vehicle: saline, higher = larger tumour); 104 % of control (endpoint: mean tumor weight, dose: 25.0 mg/kg/injection, schedule: Q01DX011 (ip), vehicle: saline, higher = larger tumour); 84 % of control under setting [1]; 43 % of control and 49 % of control under setting [2].
